# Reference: ChEMBL document CHEMBL4028802, “DILIrank: the largest reference drug list ranked by the risk for developing drug-induced liver injury in humans” (Drug Discov Today, 2016)
# Starred links: 1 amine or outer side, 2 acyl side, 3 side chain; linkers in the order of their positions; H or OH if unused. Positions of bridges follow the written chain, without caps; N, C: chain ends. Non-standard residues stand in square brackets, D forms with d. Residues, ends and D or L forms follow the SMILES beside them. *: point of attachment. hTyr(3S-OH,4S-OH,3'-OSO3H) = N[C@H](C(=O)O)[C@H](O)[C@@H](O)c1ccc(O)c(OS(=O)(=O)O)c1; Orn(4R-OH,5R-OH) = O=C([C@H](C[C@@H](O)[C@@H](O)N[*:3])N[*:1])[*:2]; Ileψ(thiazoline)Cys = CC[C@H](C)[C@H](N)C1=N[C@H](C(=O)*)CS1; Pro(3S-OH,4S-Me) = C[C@H]1CN[C@H](C(=O)O)[C@H]1O; X1 = CCCCCOc1ccc(-c2cc(-c3ccc(C(=O)*)cc3)no2)cc1; Gln(3R-OH) = NC(=O)C[C@@H](O)[C@H](N)C(=O)O; Hyp = O=C(O)[C@@H]1C[C@@H](O)CN1; dOrn = NCCC[C@@H](N)C(=O)O
# Experiments:
# Homo sapiens [1] = species on record: Homo sapiens; test: Liver toxicity in human assessed as induction of drug-induced liver injury by measuring severity class index
# Homo sapiens [2] = species on record: Homo sapiens; test: Liver toxicity in human assessed as induction of drug-induced liver injury by measuring verified drug-induced liver injury concern status
# Wherever DILI severity class is given: key of the grades not given here.
Compound,DILI_severity_class (Homo sapiens [1]),DILI_Concern (Homo sapiens [2])
COc1ccc(OC)c(C(O)CNC(=O)CN)c1 (stereo not given) [MIDODRINE],0,No-Dili-Concern
"CCCCCOc1ccc(-c2cc(-c3ccc(C(=O)N[C@H]4C[C@@H](O)[C@@H](O)NC(=O)[C@@H]5[C@@H](O)[C@@H](C)CN5C(=O)[C@H]([C@H](O)CC(N)=O)NC(=O)[C@H]([C@H](O)[C@@H](O)c5ccc(O)c(OS(=O)(=O)O)c5)NC(=O)[C@@H]5C[C@@H](O)CN5C(=O)[C@H]([C@@H](C)O)NC4=O)cc3)no2)cc1 [MICAFUNGIN] (X1-[Orn(4R-OH,5R-OH)]T[Hyp][hTyr(3S-OH,4S-OH,3'-OSO3H)][Gln(3R-OH)][Pro(3S-OH,4S-Me)]; lactam 1-C)",7,Most-Dili-Concern
OC(CCN1CCCCC1)(c1ccccc1)C1CCCCC1 (stereo not given) [TRIHEXYPHENIDYL],0,No-Dili-Concern
CCCCC(=O)N(Cc1ccc(-c2ccccc2-c2nnn[nH]2)cc1)[C@H](C(=O)O)C(C)C,3,Less-Dili-Concern
O=C(O)CCCc1ccc(N(CCCl)CCCl)cc1 [CHLORAMBUCIL],3,Less-Dili-Concern
O=P1(N(CCCl)CCCl)NCCCO1 (stereo not given) [CYCLOPHOSPHAMIDE ANHYDROUS],5,Less-Dili-Concern
COCCCOc1cc(C[C@@H](C[C@H](N)[C@@H](O)C[C@H](C(=O)NCC(C)(C)C(N)=O)C(C)C)C(C)C)ccc1OC,0,Less-Dili-Concern
CC1=C(C/C=C(\C)CCC[C@H](C)CCC[C@H](C)CCCC(C)C)C(=O)c2ccccc2C1=O [PHYTONADIONE],0,No-Dili-Concern
CC(C)[C@H](N)C(=O)OCC(CO)OCn1cnc2c(=O)nc(N)[nH]c21 (stereo not given in full) [VALGANCICLOVIR],3,Ambiguous-Dili-Concern
Cc1nc(C)c2c(n1)N(Cc1ccc(-c3ccccc3-c3nnn[nH]3)cc1)C(=O)CC2 [TASOSARTAN],8,Most-Dili-Concern
O=C(O)c1ccccc1-c1c2ccc(=O)cc-2oc2cc(O)ccc12,0,No-Dili-Concern
CN(C)CCCN1c2ccccc2Sc2ccc(Cl)cc21 [CHLORPROMAZINE],2,Less-Dili-Concern
Nc1ccc(S(=O)(=O)c2ccc(N)cc2)cc1 [DAPSONE],3,Less-Dili-Concern
Nc1nc(N)c2nc(-c3ccccc3)c(N)nc2n1,5,Less-Dili-Concern
CCCc1nc(C(C)(C)O)c(C(=O)OCc2oc(=O)oc2C)n1Cc1ccc(-c2ccccc2-c2nnn[nH]2)cc1 [OLMESARTAN MEDOXOMIL],4,Ambiguous-Dili-Concern
CC(C)C[C@H](NC(=O)[C@H](Cc1c[nH]c2ccccc12)NC(=O)[C@H](Cc1ccc(O)cc1)NC(=O)[C@H](CO)NC(=O)[C@H](Cc1c[nH]c2ccccc12)NC(=O)[C@H](Cc1c[nH]cn1)NC(=O)[C@@H]1CCC(=O)N1)C(=O)N[C@@H](CCCNC(=N)N)C(=O)N1CCC[C@H]1C(=O)NCC(N)=O.O=C(O)c1cc2ccccc2c(Cc2c(O)c(C(=O)O)cc3ccccc23)c1O,3,Less-Dili-Concern
CONC(=N)c1ccc(-c2ccc(-c3ccc(C(=N)NOC)cc3)o2)cc1 [PAFURAMIDINE],8,Most-Dili-Concern
CCCCNc1cc(C(=O)O)cc(S(N)(=O)=O)c1Oc1ccccc1 [BUMETANIDE],3,Ambiguous-Dili-Concern
"O[C@@H](c1cc(C(F)(F)F)nc2c(C(F)(F)F)cccc12)[C@H]1CCCCN1 [(S,R)-MEFLOQUINE]",7,Less-Dili-Concern
COc1ccc2c3c1O[C@H]1C(=O)CC[C@@]4(O)[C@@H](C2)N(C)CC[C@]314 [OXYCODONE],0,No-Dili-Concern
Cc1nnc2n1-c1ccc(Cl)cc1C(c1ccccc1)=NC2 [ALPRAZOLAM],7,Less-Dili-Concern
O=C(NCC1CCCCN1)c1cc(OCC(F)(F)F)ccc1OCC(F)(F)F (stereo not given) [FLECAINIDE],7,Less-Dili-Concern
CC[C@@H]1C(=O)OC[C@@H]1Cc1cncn1C [PILOCARPINE],3,Ambiguous-Dili-Concern
CC(C)=CCN1CC[C@]2(C)c3cc(O)ccc3C[C@H]1[C@H]2C [(+)-PENTAZOCINE],0,No-Dili-Concern
CCN(CC)CC#CCOC(=O)C(O)(c1ccccc1)C1CCCCC1 (stereo not given) [OXYBUTYNIN],0,No-Dili-Concern
Cc1c(OCC(F)(F)F)ccnc1C[S@@+]([O-])c1nc2ccccc2[nH]1 [DEXLANSOPRAZOLE],4,Less-Dili-Concern
O=C(O)c1ccc(-n2nc(-c3ccccc3O)nc2-c2ccccc2O)cc1 [DEFERASIROX],7,Most-Dili-Concern
CN(C)CCCC1c2ccccc2Nc2ccc(Cl)cc21 (stereo not given) [CLOMACRAN],8,Most-Dili-Concern

Compound,DILI_severity_class (Homo sapiens [1]),DILI_Concern (Homo sapiens [2])
CN[C@@H](C)Cc1ccccc1 [METHAMPHETAMINE],0,No-Dili-Concern
CC(C)(C)NCC(O)c1ccc(O)c(CO)c1 (stereo not given) [ALBUTEROL],0,No-Dili-Concern
C=C1[C@H](CO)[C@@H](O)C[C@@H]1n1cnc2c(=O)[nH]c(N)nc21.O,7,Ambiguous-Dili-Concern
COc1ccc2[nH]c([S+]([O-])Cc3ncc(C)c(OC)c3C)nc2c1 (stereo not given) [OMEPRAZOLE],4,Less-Dili-Concern
CCCc1nc2c(C)cc(-c3nc4ccccc4n3C)cc2n1Cc1ccc(-c2ccccc2C(=O)O)cc1,3,Less-Dili-Concern
C[C@]12C/C(=C/O)C(=O)C[C@@H]1CC[C@@H]1[C@@H]2CC[C@@]2(C)[C@H]1CC[C@]2(C)O [OXYMETHOLONE],7,Most-Dili-Concern
CCOC(=O)[C@H](CCc1ccccc1)N[C@@H](C)C(=O)N1[C@H](C(=O)O)C[C@@H]2CCC[C@@H]21,7,Less-Dili-Concern
CC[C@H]1OC(=O)[C@H](C)C(=O)[C@H](C)[C@@H](O[C@@H]2O[C@H](C)C[C@H](N(C)C)[C@H]2O)[C@](C)(OC)C[C@@H](C)C(=O)[C@H](C)[C@H]2N(CCCCn3cnc(-c4cccnc4)c3)C(=O)O[C@]12C [TELITHROMYCIN],8,Most-Dili-Concern
O=P(O)(O)C(O)(Cc1cccnc1)P(=O)(O)O [RISEDRONIC ACID],3,Ambiguous-Dili-Concern
CC(O)C(=O)[O-].[Na+] (stereo not given) [SODIUM LACTATE],0,No-Dili-Concern
CC(=O)O[C@H]1C[C@@H]2CC[C@@H]3[C@H](CC[C@@]4(C)[C@H]3C[C@H]([N+]3(C)CCCCC3)[C@@H]4OC(C)=O)[C@@]2(C)C[C@@H]1N1CCCCC1 [VECURONIUM],0,No-Dili-Concern
CC[C@H](C)[C@H](N)C1=N[C@H](C(=O)N[C@@H](CC(C)C)C(=O)N[C@H](CCC(=O)O)C(=O)N[C@H](C(=O)N[C@H]2CCCCNC(=O)[C@H](CC(N)=O)NC(=O)[C@@H](CC(=O)O)NC(=O)[C@H](Cc3cnc[nH]3)NC(=O)[C@@H](Cc3ccccc3)NC(=O)[C@H]([C@@H](C)CC)NC(=O)[C@@H](CCCN)NC2=O)[C@@H](C)CC)CS1 [BACITRACIN] ({Ileψ(thiazoline)Cys}-L[dE]IK[dOrn]I[dF]H[dD]N; lactam 4-C),0,No-Dili-Concern
O=C(CCCCCCC(=O)Nc1ccccc1)NO [VORINOSTAT],0,No-Dili-Concern
CCOC(=O)C(C)(C)Oc1ccc(Cl)cc1 [CLOFIBRATE],3,Less-Dili-Concern
CNC[C@H](O)[C@@H](O)[C@H](O)[C@H](O)CO.CNC[C@H](O)[C@@H](O)[C@H](O)[C@H](O)CO.O=C(CCCCC(=O)Nc1c(I)cc(I)c(C(=O)O)c1I)Nc1c(I)cc(I)c(C(=O)O)c1I [IODIPAMIDE MEGLUMINE],0,No-Dili-Concern
O=C1CN2Cc3c(ccc(Cl)c3Cl)N=C2N1 [ANAGRELIDE],3,Ambiguous-Dili-Concern
CN(N=O)C(=O)N[C@@H](C=O)[C@@H](O)[C@H](O)[C@H](O)CO [STREPTOZOCIN],3,Ambiguous-Dili-Concern
Fc1ccc([C@@H]2CCNC[C@H]2COc2ccc3c(c2)OCO3)cc1 [PAROXETINE],8,Less-Dili-Concern
C[n+]1ccccc1/C=N/O [PRALIDOXIME],3,Ambiguous-Dili-Concern
Cc1ccccc1C(OCCN(C)C)c1ccccc1 (stereo not given) [ORPHENADRINE],0,No-Dili-Concern
NYSTATIN,0,No-Dili-Concern
CNC1(c2ccccc2Cl)CCCCC1=O (stereo not given) [KETAMINE],0,Less-Dili-Concern
CC(C)CN(C[C@@H](O)[C@H](Cc1ccccc1)NC(=O)O[C@H]1CO[C@H]2OCC[C@H]21)S(=O)(=O)c1ccc(N)cc1,8,Most-Dili-Concern
Nc1nnc(-c2cccc(Cl)c2Cl)c(N)n1 [LAMOTRIGINE],7,Most-Dili-Concern
CC1=NS(=O)(=O)c2cc(Cl)ccc2N1 [DIAZOXIDE],3,Ambiguous-Dili-Concern
CC1(C)S[C@@H]2[C@H](NC(=O)[C@H](N)c3ccc(O)cc3)C(=O)N2[C@H]1C(=O)O [AMOXICILLIN],5,Less-Dili-Concern
Cc1ccc(S(=O)(=O)NC(=O)NN2CCCCCC2)cc1 [TOLAZAMIDE],2,Less-Dili-Concern
